Experimental data reported in US20090175788A1, “RADIOLABELLED LIGAND FOR THE GLYCINE 1 TRANSPORTER” (priority 2006, published 2009).

Experiments:
[1] = target: T1, glycine transporter subtype 1 (GlyT1) (Sus scrofa, UniProt A0A287AJD7); experiment: PET imaging with pharmacological challenges (blocking of Compound A uptake by a selective GlyT1 inhibitor); format: in vivo; details: pig
T1 construct: from tissue; host or cells: brain of living anaesthetised pig (Yorkshire/Danish Landrace), in vivo PET
T1 sequence (A0A287AJD7 1-654): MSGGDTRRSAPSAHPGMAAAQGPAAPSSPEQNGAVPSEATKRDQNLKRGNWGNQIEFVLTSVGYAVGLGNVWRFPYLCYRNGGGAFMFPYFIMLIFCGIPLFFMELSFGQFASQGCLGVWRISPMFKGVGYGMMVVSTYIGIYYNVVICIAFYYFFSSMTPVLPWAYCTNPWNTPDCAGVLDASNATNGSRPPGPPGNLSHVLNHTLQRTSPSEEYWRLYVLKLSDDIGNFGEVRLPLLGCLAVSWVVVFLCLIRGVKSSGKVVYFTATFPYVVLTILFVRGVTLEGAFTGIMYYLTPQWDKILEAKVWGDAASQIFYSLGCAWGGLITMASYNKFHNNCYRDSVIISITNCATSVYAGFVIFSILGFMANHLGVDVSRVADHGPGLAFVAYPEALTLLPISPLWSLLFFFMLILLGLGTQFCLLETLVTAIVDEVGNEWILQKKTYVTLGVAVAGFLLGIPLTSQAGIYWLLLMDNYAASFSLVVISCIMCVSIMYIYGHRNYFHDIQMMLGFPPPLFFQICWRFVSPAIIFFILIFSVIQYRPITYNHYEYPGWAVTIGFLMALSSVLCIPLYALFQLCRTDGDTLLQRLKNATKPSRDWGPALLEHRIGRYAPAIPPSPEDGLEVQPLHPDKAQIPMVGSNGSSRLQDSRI
Description: (§1) The animals (pig, Yorkshire/Danish Landrace (˜40 Kg; n=2) were housed singly in thermostatically controlled (20° C.) and naturally illuminated stalls. They were scanned under terminal anaesthesia (ketamine induced isoflurane anaesthesia) on different days. The left femoral artery and vein of each animal were surgically cannulated using catheters (Avanti® size 4F-7F). Blood samples were collected from the femoral artery and the radiolabelled and non-labelled agents were injected into the femoral vein. Animals were placed supine in a Siemens ECAT EXACT HR tomograph, with the head immobilised in a custom-made holding device. During the study, blood pH, pCO2 and pO2 levels were monitored and maintained within the normal physiological range. In addition, BP and heart rate were recorded throughout the study. Compound A was administered intravenously into the femoral vein as a 1 minute bolus injection. PET scanning and arterial blood sampling was commenced upon start of the radioligand administration.
In a first study, two sequential high specific activity iv radioligand Compound A administrations were performed in same animal on the same day.
(§2) The PET data were analysed by using tracer kinetic modeling techniques to derive estimates of the tissue delivery (K1) and partition coefficient (PET volume of distribution—Vd). An input function representing the concentration of unchanged radiotracer in plasma was generated using discrete measures of the total plasma radioactivity and HPLC measures determining the parent radiotracer fraction. A generic tracer kinetic model (DEPICT) which estimates the tissues impulse response function was fitted to each of the individual tissue time activity curves to derive the appropriate parameters for each region (K1,Vd) (R. N. Gunn, S. R. Gunn, V. J. Cunningham. Cereb Blood Flow Metab. 2001, 21(6), 635-52; R. N. Gunn, S. R. Gunn, F. E. Turkheimer, J. A. Aston, V. J. Cunningham. J Cereb Blood Flow Metab. 2002, 22(12), 1425-39).

[2] = target: T1, glycine transporter subtype 1 (GlyT1); experiment: PET imaging with Compound A in pig brain; format: in vivo
Description: as §1, §2

GlyT1 saturation (occupancy) ([1]; high dose 0.5 mg/kg iv) | ED50 ([1]; increasing iv doses, PET, read-out: intravenous ED50 (change in Compound A derived Vd)) [mg/kg] | effect of pretreatment on K1 of Compound A ([1]; iv pretreatment) | time of peak brain uptake of radioactivity after administration ([2]; pig brain, iv, PET) [min] | brain entry of radiotracer ([2]; pig, iv 1 minute bolus, PET 0 to 90 min) | Extraction fraction (K1) ([2]; pig, stable across brain regions, tracer kinetic model (DEPICT)) [min⁻¹] | Compound | effect on Compound A uptake in the brain ([1]; escalating iv doses 0.001, 0.01 and 0.1 mg/kg, 5 min prior to Compound A) | effect on specific uptake of radiotracer Compound A ([1]; high iv dose 0.5 mg/kg, 5 minutes prior to Compound A) | regional brain distribution ([2]; pig brain, PET, compared with the known distribution of GlyT1)
near complete GlyT1 saturation | 0.0225 | not altered |  |  |  | CN1CCCC[C@H]1[C@@H](NC(=O)c1cccc(C(F)(F)F)c1Cl)c1ccccc1 [2-chloro-N—[(S)-[(2S)-1-methyl-2-piperidinyl](phenyl)methyl]-3-(trifluoromethyl)benzamide] | dose-dependent decrease of compound A uptake in the brain | the specific uptake of radiotracer was blocked | 
 |  |  | 25 | readily enters the pig brain | 0.06 | Cc1cccc(C)c1C(=O)NC(c1ccccc1)C1(N(C)[11CH3])CCCC1 (stereo not drawn) [Compound A, [^11C—N-methyl]-N-[[1-(dimethylamino)cyclopentyl](phenyl)methyl]-2,6-dimethylbenzamide] |  |  | higher accumulation in mid-brain, thalamus and cerebellum compared to cortical regions
